{"source": "paper PMC5826917", "about": "“A small molecule inhibitor of Nicotinamide N-methyltransferase for the treatment of metabolic disorders” (Scientific Reports, 2018)", "key": {"[1]": {"test_system": "db/db mice", "design": "method as in PMID 12217892, PMID 25256010", "details": "two weeks of treatment at 100 µg/kg bid; cited from earlier work"}, "[2]": {"test_system": "mice on a high-fat diet", "design": "method as in PMID 29155147", "details": "treatment period of 12 days; cited from earlier work"}, "[3]": {"test_system": "db/db mice", "assay": "Chronic efficacy study in db/db mice", "details": "db/db mice", "procedure": "Samples for MNA were analyzed employing a fit-for-purpose LC-MS/MS method. PE-Sciex API-4000 triple quadrupole (PerkinElmerSciex Instruments, Boston, MA) mass spectrometer was employed for this analysis. Samples (5 µL) were injected onto Kinetex HILIC (50 × 4.6 mm, 2.6 µm; Phenomenex, Torrance, CA, USA) column connected to Shimadzu VP (Shimadzu, Japan) LC system. The gradient mobile phase mixture of 0.2% formic acid and acetonitrile was delivered at a flow rate of 0.45 ml min-1 into the mass spectrometer electrospray ionization (ESI) chamber. Quantitation was achieved by MS/MS detection in positive ion mode for MNA and internal standard (d4–MNA). Detection of the ions was performed in the multiple reaction monitoring (MRM) mode, monitoring the transition of the m/z 137 precursor ion to the m/z 92 product ion for MNA and m/z 141 precursor ion to the m/z 84 product ion for d4-MNA (internal standard).\nA simple protein precipitation extraction method was followed for extraction of N-methylnicotinamide from plasma and various tissue homogenate samples. The tissue samples were homogenized with 1:3 proportions of phosphate buffer saline (PBS) and this homogenate was used for N-Methylnicotinamide determinations. To an aliquot of ~50 μL of plasma/ liver homogenate/ adipose tissue homogenate samples ~300 µl of acetonitrile containing IS (d4-MNA) solution was added, followed by vortex for ~3 minutes and centrifuged for 10 minutes at 14,000 rpm. The supernatant was separated and transferred to pre-labeled HPLC vials and analyzed by LC-MS/MS system.\nSamples for methylated JBSNF-000088 were analyzed employing a fit-for-purpose LC-MS/MS method. PE-Sciex API-5500 triple quadrupole (PerkinElmerSciex Instruments, Boston, MA) mass spectrometer was employed for this analysis. Samples (2 µL) were injected onto Atlantis dC18 (50 × 4.6 mm, 3 µm; Waters, Milford, MA, USA) column connected to Shimadzu VP (Shimadzu, Japan) LC system. The gradient mobile phase mixture of 0.2% formic acid and acetonitrile was delivered at a flow rate of 0.9 mL min-1 into the mass spectrometer electrospray ionization (ESI) chamber. Quantitation was achieved by MS/MS detection in positive ion mode for methylated JBSNF-000088 and internal standard (Tolbutamide). Detection of the ions was performed in the multiple reaction monitoring (MRM) mode, monitoring the transition of the m/z 168 precursor ion to the m/z 128.8, product ion for MNA and m/z 271 precursor ion to the m/z 91 product ion for tolbutamide (internal standard).\nMale C57BL6/N (Vivo Bio Tech Ltd, India), ob/ob (B6.V-Lepob/OlaHsd) and its lean control (Envigo laboratories Inc, USA) and db/db (BKS.Cg- + Leprdb/ + Leprdb/OlaHsd) and its lean control (Envigo laboratories Inc, USA) were housed in individually ventilated cages (n = 5/cage) under standard laboratory conditions. The study room environment was maintained at a temperature of 21–24 °C and, relative humidity at 40–70%. The animal rooms were maintained under 12 h light and dark cycle. Animals were provided with ad libitum access to water and food (except where noted otherwise, e.g. during fasting prior for glucose tolerance tests, fasting prior to terminal sacrifice). Animals were acclimatized for 1 week before initiation of studies. For Diet induced obesity (DIO) mice study, C57BL6/N mice were maintained on rodents chow diet (Teklad; Harlan) or HFD (60% Kcal; Research diet) for 14 weeks before study initiation and throughout the study period. ob/ob and db/db mice and their lean controls were maintained on rodents chow diet (Teklad; Harlan). All the experiments were approved by Institutional Animal Ethics Committee (IAEC) of Jubilant Biosys Ltd, India.\nLean control + Vehicle and HFD + Vehicle Control groups (G1 and G2) mice were administered with vehicle."}, "[4]": {"biological_target": "T1, NNMT (Homo sapiens, UniProt P40261)", "T1 sequence (P40261 1-264)": "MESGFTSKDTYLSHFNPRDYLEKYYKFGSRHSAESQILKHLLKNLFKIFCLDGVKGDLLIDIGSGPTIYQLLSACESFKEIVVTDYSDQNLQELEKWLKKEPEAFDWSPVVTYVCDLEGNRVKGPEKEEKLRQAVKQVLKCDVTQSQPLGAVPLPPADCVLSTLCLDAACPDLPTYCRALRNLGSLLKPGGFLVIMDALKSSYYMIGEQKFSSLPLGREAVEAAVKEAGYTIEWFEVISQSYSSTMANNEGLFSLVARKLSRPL", "assay": "NNMT inhibition by the N-methylated product", "assay_type": "biochemical"}}}
{"compound": "liraglutide", "values": [{"measurement": "effect on body weight", "setting": "[1]", "value": "no effect on body weight"}, {"measurement": "influence on glucose homeostasis", "setting": "[1]", "value": "moderate influence on glucose homeostasis"}]}
{"compound": "C[n+]1cccc2c(N)cccc21", "note": "[5-Amino-1-methylquinoline]", "values": [{"measurement": "body weight", "setting": "[2]", "value": "causes weight loss at preserved food intake"}]}
{"compound": "COc1ccc(C(N)=O)c[n+]1C", "note": "[N-methylated product of JBSNF-000088, -carbamoyl-2-methoxy-1-methylpyridin-1-ium trifluoromethanesulfonate]", "values": [{"measurement": "detection of methylated compound after oral administration of JBSNF-000088", "setting": "[3]", "value": "could be detected in plasma and adipose tissue"}, {"measurement": "IC50", "setting": "[4]", "value": "> 30", "unit": "µM"}, {"measurement": "inhibition at 30 µM", "setting": "[4]; at 30 µM", "value": 20, "unit": "%"}]}
